# Measurements published in patent US5654267A, “Cooperative combinations of ligands contained within a matrix” (La Jolla Cancer Research Center, priority 1994, dated 1997).
# Legend:
# NRK cells = test: DNA synthesis in IGF-1-treated NRK cells on vitronectin, collagen or laminin; assay type: cell-based; conditions: data not shown
# [1] = test system: HIRcB, NIH 3T3, NRK, HT29, UCLA-P3 and Panc-1 cells; test: Insulin responsiveness in a panel of αv β3 and αv β5 expressing cell lines on different substrates; assay type: cell-based; conditions: panel of six cell lines
# Text: A correlation between αv β3 expression and increased insulin responsiveness on vitronectin was also found in a panel of three cell lines expressing αv β3 and three lines expressing only αv β5. […] All the cell lines attached equally to vitronectin. NRK, HT29, UCLA-P3 and Panc-1 attached also to laminin and collagen, and HIRcB and NIH 3T3 cells attached to laminin. The attachment to laminin and collagen was inhibited by anti-β1 antibodies (Vuori and Ruoslahti, unpublished data, and Hayman et al., J. Cell Biol. 100:1948 (1985); Hayashi et al., J. Cell biol. 110:175 (1990); Schreiner et al., Clin. Expl. Metastasis 9:163 (1991); and Cheresh et al., supra).
# [2] = test system: αv β3 integrin-IRS-1 association; test: Association of IRS-1 with the vitronectin receptor (αv β3) in insulin-stimulated HIRcB cells, immunoprecipitation/immunoblot densitometry; assay type: cell-based, rat
# Method: HIRcB cells were grown to 80% confluency in Dulbeccos's modified Eagle's medium (DMEM) containing 10% fetal calf serum (FCS) and 500 nM methotrexate, incubated in DMEM +0.1% BSA for 36 hours, and either left quiescent, or stimulated with 100 nM insulin (Sigma) for 3 minutes. Cell monolayers were rinsed with PBS, frozen with liquid nitrogen and lysed in NP-40 lysis buffer (20 mM Tris-HCl (pH 8.0), 1% NP-40, 10% glycerol, 137 mM NaCl, 1 mM CaCl2, 1 mM MgCl2, 1 mM sodium orthovanadate, 50 mM sodium fluoride, 1 mM phenylmethylsulfonylfluoride, 0.1 U/ml aprotinin, 10 μg/ml pepstatin A). HIRcB cells were immunoprecipitated with anti-αv β3 237 according to Suzuki et al., PNAS USA 83:8614 (1986), as shown in lanes 1 and 3, 237 preimmune serum in lane 2, anti-αv β3 1343 in lane 4, anti-αv β3 in lane 5, anti-α5 β1488 in lane 6 (made according to Argraves et al., J. Cell Biol. 105:1183 (1987)) and an unrelated rabbit antiserum (lane 7). Anti-αv β3 1343 was obtained from a person (Telios Pharmaceuticals, Inc.) and anti-αIIb β3 from Dr. Elisabetta Dejana (Mario Negri Institute, Milan, Italy). Three anti-α5 β1 antibodies and six unrelated polyclonal antibodies tested gave results similar to those shown in lanes 6 and 7. […] In lane 8, anti-αv β3 237 immunocomplexes from insulin-treated cells were dissociated and reprecipitated with the same antibody as follows. […]
# [3] = test system: FG-B cells (αv β3 integrin positive human pancreatic carcinoma cells); test: DNA synthesis ([3H]-thymidine incorporation) in insulin-stimulated FG-B cells on vitronectin or type I collagen; assay type: cell-based; conditions: 100 mM insulin, plates coated with 10 μg/ml vitronectin or type I collagen, FIG. 4 columns 9, 10
# Method: (§1) FG-B (columns 1, 2, 5, 6, 9, and 10) and FG-C cells (columns 3, 4, 7, 8, 11, and 12) were plated at 1×10^5 cells/well on 24-well plates that had been coated either with vitronectin (dark column) or type I collagen (open column). Plates were coated with 10 μg/ml of either vitronectin or type I collagen for 12 hours followed by blocking with 0.5% bovine serum albumin for 2 hours. Cells were incubated for 36 hours in DMEM containing 10% FCS (columns 1 to 4), or in DMEM containing 0.1% BSA followed by addition of buffer (columns 5 to 8) or 100 mM insulin (columns 9 to 12). FCS is used as a control because it provides maximal stimulation owing to the presence of high levels of growth factors and adhesion proteins.
# (§2) After 15 hours, the cells were pulse-labeled with 1 μCi/ml [^3 H]-thymidine (specific activity 6.7 Ci/mmol, DuPont NEN) for 3 hours and thymidine incorporation into DNA was determined by trichloroacetic acid precipitation and liquid scintillation counting. Error bars indicate the standard error of triplicate determinations.
# [4] = test system: FG-C cells (αv β3 integrin negative human pancreatic carcinoma cells); test: DNA synthesis ([3H]-thymidine incorporation) in insulin-stimulated FG-C cells on vitronectin or type I collagen; assay type: cell-based; conditions: lack αv β3, FIG. 4 columns 3, 4, 7, 8, 11, 12
# Method: as §1, §2
# [5] = test system: human foreskin fibroblasts; test: DNA synthesis ([3H]-thymidine incorporation) in PDGF-stimulated human foreskin fibroblasts; assay type: cell-based; conditions: 40 ng/ml PDGF-BB, 20 μg/ml coating, FIG. 5 column 3 vs 4
# Method: (§3) Human foreskin fibroblasts (Coriell) were plated at 1×10^5 cells/well on 24-well plates that had been coated for 12 hours either with 20 μg/ml of vitronectin of 20 μg/ml of type I collagen. Cells were incubated for 36 hours in Dulbecco's modified Eagle's medium containing 0.1% bovine serum albumin followed by addition of buffer or 40 ng/ml PDGF-BB (Boehringer Mannheim). After 15 hours, the cells were pulse-labeled with 1 μCi/ml [^3 H]-thymidine (specific activity 6.7 Ci/mmol, DuPont NEN) for 3 hours and thymidine incorporation into DNA was determined by liquid scintillation counting.
# Cells were serum-starved and treated with buffer only (samples 1 and 2) or with PDGF (samples 3 and 4). Data points are the average of duplicate samples.
# Rat-1 cells = test: DNA synthesis ([3H]-thymidine incorporation) in EGF-stimulated Rat-1 cells; assay type: cell-based; conditions: 40 ng/ml EGF, 20 μg/ml coating, FIG. 6
# Method: as §3, with “Rat-1 cells were” for “Human foreskin fibroblasts (Coriell) were”, “vitronectin or” for “vitronectin of”, “ng/ml EGF” for “ng/ml PDGF-BB”
# After being serum-starved, the cells were treated with buffer only (samples 1 and 2) or with EGF (samples 3 and 4). Data points are the average of triplicate samples.
substance,measurement,setting,value
"IGF-1: insulin-like growth factor (IGF-1), signals through IRS-1",higher DNA synthesis in response to IGF-1 when plated on vitronectin than on collagen or laminin,NRK cells,about 2.3 fold
insulin,effect of attachment to laminin on insulin responsiveness,[1],did not increase
same,time of insulin stimulation to maximal IRS-1-vitronectin receptor association,[2]; HIRcB cells,3 min
same,IRS-1 complexed with the vitronectin receptor,"[2]; insulin-stimulated HIRcB cells, share of IRS-1 of total cell lysate",Five to eight
same,higher DNA synthesis in response to insulin when plated on vitronectin than on collagen,[3],about 2.5 fold
same,difference in the DNA synthesis response on vitronectin and collagen,[4],no difference
"PDGF: platelet derived growth factor, PDGF-BB (Boehringer Mannheim)",higher DNA synthesis in response to PDGF when plated on vitronectin than on collagen,[5],about 2.3 fold
"EGF: Epidermal growth factor (Boehringer Mannheim) (NSDSECPLSHDGYCLHDGVCMYIEALDKYACNCVVGYIGERCQYRDLKWWELR; UniProt P01133 971-1023, looked up)",DNA synthesis response to EGF on vitronectin versus collagen,Rat-1 cells,same response
